The results in this text go back to ChEMBL document CHEMBL1140457, “(1R,2S)-4-(2-cyano-cyclohexyl-oxy)-2-trifluoromethyl-benzonitrile, a potent androgen receptor antagonist for stimulating hair growth and reducing sebum production” (Bioorg Med Chem Lett, 2007).

Molecules are shown by their SMILES. Active and inactive are the calls of the source.

A word on the IC50: it is the concentration that inhibits the measured activity by half. The term half-life denotes the time needed for the level to fall by half in the phase considered. The term clearance denotes a measure of how efficiently the substance is removed, as volume per time.

Data set [1] has as its system Syrian golden hamster. The data set can be described thus: Reduction of sebum production in topically dosed Syrian hamster ear model administered at 0.5% concentration twice daily for 2 weeks. The class given is functional, Mesocricetus auratus. Also noted: scale not given: the % may be the effect or the level left.
The next data set concerns Mus musculus. As to the kind of experiment: Stimulation of hair growth in topically dosed C3H/HeN mouse model administered twice daily for 4 weeks. The data set is classed as functional, organism-based.
Data set [2] deals with Syrian golden hamster. As to the kind of experiment: Reduction of sebaceous gland size in topically dosed Syrian hamster ear model administered twice daily for 2 weeks. The class given is functional, organism-based. The following applies: Mesocricetus auratus.
The target in data set [3] is T1, Androgen receptor (Homo sapiens, UniProt P10275).
T1 sequence (P10275 whole entry): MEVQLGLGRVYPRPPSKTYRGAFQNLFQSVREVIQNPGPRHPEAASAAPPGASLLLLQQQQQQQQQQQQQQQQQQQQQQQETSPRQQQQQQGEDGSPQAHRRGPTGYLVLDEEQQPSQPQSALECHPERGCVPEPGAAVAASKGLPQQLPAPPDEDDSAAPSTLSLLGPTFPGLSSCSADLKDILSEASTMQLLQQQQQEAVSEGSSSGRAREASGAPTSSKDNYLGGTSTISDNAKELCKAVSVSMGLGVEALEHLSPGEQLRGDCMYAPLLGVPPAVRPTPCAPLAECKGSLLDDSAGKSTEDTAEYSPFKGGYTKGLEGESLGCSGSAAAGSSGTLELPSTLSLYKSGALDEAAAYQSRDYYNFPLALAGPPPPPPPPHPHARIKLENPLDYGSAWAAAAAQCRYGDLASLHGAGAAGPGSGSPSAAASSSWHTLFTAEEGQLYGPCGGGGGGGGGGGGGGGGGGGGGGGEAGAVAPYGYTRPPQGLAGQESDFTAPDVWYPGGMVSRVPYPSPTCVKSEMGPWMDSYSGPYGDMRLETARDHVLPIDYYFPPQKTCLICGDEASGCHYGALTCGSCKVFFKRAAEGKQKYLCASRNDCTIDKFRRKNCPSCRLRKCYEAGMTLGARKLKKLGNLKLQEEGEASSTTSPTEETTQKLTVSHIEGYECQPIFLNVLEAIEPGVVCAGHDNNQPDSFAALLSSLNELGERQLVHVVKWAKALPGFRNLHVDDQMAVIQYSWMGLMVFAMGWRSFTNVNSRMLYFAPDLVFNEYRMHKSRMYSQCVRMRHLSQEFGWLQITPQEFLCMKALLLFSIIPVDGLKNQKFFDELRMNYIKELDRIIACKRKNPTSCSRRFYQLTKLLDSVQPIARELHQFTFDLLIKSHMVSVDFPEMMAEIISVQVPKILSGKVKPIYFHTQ
As to the kind of experiment: Antagonist activity at androgen receptor expressed in MDA-MB-453 cells assessed as inhibition of dihydrotestosterone-induced response in reporter gene assay. The data set is classed as functional, cell-based. For orientation: A reporter such as luciferase makes a cellular process visible.

Data set [4] has as its target T1, Androgen receptor. As to the kind of experiment: Displacement of [3H]DHT from androgen receptor expressed in Sf9 cells. For orientation: Displacement assays read how much labelled ligand stays bound in the presence of the test substance.
Data set [5] has as its system Syrian golden hamster. The data set can be described thus: Reduction of sebum production in topically dosed Syrian hamster ear model administered twice daily for 2 weeks. The class given is functional, Mesocricetus auratus.
Data set [6] can be described thus: Metabolic stability in human hepatocytes assessed as hepatic extraction ratio at 1 uM. The class given is ADME, cell-based, Hepatocyte. The following applies: read-out: Stability.
A short description of data set [7]: Metabolic stability in Sprague-Dawley rat hepatocytes assessed as hepatic extraction ratio at 1 uM. The following applies: read-out: Stability. The data set is classed as ADME, cell-based, Hepatocyte.
The nature of data set [8]: Half life in Sprague-Dawley rat at 1 mg/kg, iv. The class given is ADME, organism-based. On the set-up: dose 1 mg/kg, route intravenous. The settings on record: in vivo.
The nature of data set [9]: Plasma clearance in Sprague-Dawley rat at 1 mg/kg, iv. The class given is ADME, organism-based. Also noted: dose 1 mg/kg, route intravenous.
A short description of data set [10]: Volume of distribution at steady state in Sprague-Dawley rat at 1 mg/kg, iv. The class given is ADME, organism-based. On the set-up: dose 1 mg/kg, route intravenous. The settings on record: in vivo, read-out: Vdss.
A short description of data set [11]: Metabolic stability in Beagle dog hepatocytes assessed as hepatic extraction ratio at 1 uM. The data set is classed as ADME, cell-based, Canis lupus familiaris, Hepatocyte. The following applies: read-out: Stability.

Turning to `CC1(C)C(=O)N(c2ccc(C#N)c(C(F)(F)F)c2)C(=O)N1CCCCO` [RU-58841], the Activity with Syrian golden hamster [1] is 91%.
For the molecule `N#Cc1ccc(O[C@@H]2CCCC[C@H]2C#N)cc1C(F)(F)F`, in the data set with Mus musculus, the Activity result was “Dose-dependent effect”. Besides, in the data set with Syrian golden hamster [2], the result was Active. Moreover, the results for the IC50 at Androgen receptor [3] and at Androgen receptor [4] were 12 nM and 60 nM, respectively. Further, the ED50 in the data set with Syrian golden hamster [5] is listed as 0.1%. Also, the hepatic extraction ratio at 1 µM in data set [6] stood at 0.57; in [7], 0.88; in data set [11] it was 0.92. In [8], the half-life was 1.6 h. For the same molecule, the clearance in [9] was found to be 71 mL/min/kg. The Vd in data set [10] was found to be 6.5 L/kg.
On to `N#Cc1ccc(OC2CCCCC2C#N)cc1C(F)(F)F` (racemic), for which the values for the half-inhibitory concentration (IC50) at Androgen receptor [3] and at Androgen receptor [4] were 13 nM and 58 nM, respectively.
On to `N#Cc1ccc(O[C@H]2CCCC[C@@H]2C#N)cc1C(F)(F)F`, for which the IC50 on Androgen receptor [3] amounted to 196 nM; at Androgen receptor [4], 43 nM.
